Where two headings read alike, the source gives them in different places.
Target: T1, μ-opioid receptor (Rattus norvegicus, UniProt P33535)
T1 construct: the forebrains are homogenized in Tris buffer in a Teflon®-glass homogenizer; from tissue; host or cells: forebrain of male Wistar rats (particulate membrane preparation)
Assay: Rat brain μ-opioid receptor binding assay ([3H]DAMGO)
Procedure: Rat Brain μ-Opioid Receptor Binding Assay
Male, Wistar rats (150-250 g, VAF, Charles River, Kingston, N.Y.) are killed by cervical dislocation and their brains removed and placed immediately in ice cold Tris HCl buffer (50 mM, pH 7.4). The forebrains are separated from the remainder of the brain by a coronal transection, beginning dorsally at the colliculi and passing ventrally through the midbrain-pontine junction. After dissection, the forebrains are homogenized in Tris buffer in a Teflon®-glass homogenizer. The homogenate is diluted to a concentration of 1 g of forebrain tissue per 100 mL Tris buffer and centrifuged at 39,000×G for 10 min. The pellet is resuspended in the same volume of Tris buffer with several brief pulses from a Polytron homogenizer. This particulate preparation is used for the μ-opioid binding assays. […] The tubes and filters are rinsed three times with 4 mL of 10 mM HEPES (pH 7.4) and the radioactivity associated with the filter circles determined using Formula 989 scintillation fluid (New England Nuclear, Boston, Mass.) in a scintillation counter.
The data are used to calculate either the % inhibition compared to control binding (when only a single concentration of test compound is evaluated) or a Ki value (when a range of concentrations is tested).
% Inhibition is calculated as follows: [formula]
Ki value is calculated using the LIGAND (Munson, P. J. and Rodbard, D., Anal. Biochem. 107: 220-239, 1980) data analysis program.

[1] = 10 nM solutions of the compounds, read-out: MOR binding Ki

T1 sequence (P33535 whole entry): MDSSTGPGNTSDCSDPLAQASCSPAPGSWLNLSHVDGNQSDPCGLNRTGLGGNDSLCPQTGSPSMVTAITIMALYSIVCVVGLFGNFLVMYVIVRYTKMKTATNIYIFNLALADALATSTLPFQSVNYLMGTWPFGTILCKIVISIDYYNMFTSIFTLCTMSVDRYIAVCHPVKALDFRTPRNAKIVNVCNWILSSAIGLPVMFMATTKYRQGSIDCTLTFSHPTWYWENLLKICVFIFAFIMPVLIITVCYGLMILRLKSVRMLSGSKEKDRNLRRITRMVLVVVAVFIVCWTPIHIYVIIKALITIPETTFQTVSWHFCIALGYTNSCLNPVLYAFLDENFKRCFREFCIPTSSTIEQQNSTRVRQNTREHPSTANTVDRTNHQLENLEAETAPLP

SMILES	Ki (MOR binding Ki)	Ki [1]
CCNC(=O)c1ccc(C=C2CC3CCC(C2)N3CC=C(C)C)cc1 [Cpd 55]	195 nM	–
CCNC(=O)c1ccc(C=C2CC3CCC(C2)N3Cc2ccccn2)cc1 [Cpd 56]	1500 nM	–
CCNC(=O)c1ccc(C=C2CC3CCC(C2)N3Cc2cccnc2)cc1 [Cpd 57]	1410 nM	–
CCNC(=O)c1ccc(C=C2CC3CCC(C2)N3Cc2ccncc2)cc1 [Cpd 58]	–	1180 nM
CCNC(=O)c1ccc(C=C2CC3CCC(C2)N3CC#Cc2ccccc2)cc1 [Cpd 59]	31.6 nM	–
CCNC(=O)c1ccc(C=C2CC3CCC(C2)N3Cc2cccs2)cc1 [Cpd 61]	–	71.2 nM
CCNC(=O)c1ccc(C=C2CC3CCC(C2)N3CCc2ccccc2)cc1 [Cpd 62]	–	8.56 nM
CCNC(=O)c1ccc(C(=C2CC3CCC(C2)N3Cc2cccs2)c2cnc3ccccc3c2)cc1 [Cpd 64]	30.8 nM	–
CCNC(=O)c1ccc(C(=C2CC3CCC(C2)N3Cc2ccc3c(c2)OCO3)c2cnc3ccccc3c2)cc1 [Cpd 65]	42.6 nM	–
CCNC(=O)c1ccc(C(=C2CC3CCC(C2)N3Cc2ccccn2)c2cnc3ccccc3c2)cc1 [Cpd 66]	142 nM	–
CCNC(=O)c1ccc(C(=C2CC3CCC(C2)N3CC=C(C)C)c2cccc3cccnc23)cc1 [Cpd 67]	119 nM	–
CCNC(=O)c1ccc(C(=C2CC3CCC(C2)N3Cc2cccs2)c2cccc3cccnc23)cc1 [Cpd 68]	155 nM	–
CCNC(=O)c1ccc(C(=C2CC3CCC(C2)N3Cc2ccc3c(c2)OCO3)c2cccc3cccnc23)cc1 [Cpd 69]	133 nM	–
CCNC(=O)c1ccc(C(=C2CC3CCC(C2)N3Cc2ccccn2)c2cccc3cccnc23)cc1 [Cpd 70]	41.1 nM	–
CCNC(=O)c1ccc(C(=C2CC3CCC(C2)N3Cc2ccc3ccccc3n2)c2cccnc2)cc1 [Cpd 71]	14.6 nM	–
CCNC(=O)c1ccc(C(=C2CC3CCC(C2)N3Cc2ccc3ccccc3n2)c2cccc(NC(C)=O)c2)cc1 [Cpd 72]	11.1 nM	–
CCNC(=O)c1ccc(C(=C2CC3CCC(C2)N3Cc2ccc3ccccc3n2)c2cccc(C(C)=O)c2)cc1 [Cpd 73]	35.9 nM	–
CCNC(=O)c1ccc(C(=C2CC3CCC(C2)N3Cc2csc([N+](=O)[O-])c2)c2cccnc2)cc1 [Cpd 74]	37.5 nM	–
CCNC(=O)c1ccc(C(=C2CC3CCC(C2)N3Cc2csc([N+](=O)[O-])c2)c2cccc(C(C)=O)c2)cc1 [Cpd 76]	184 nM	–
CCNC(=O)c1ccc(C=C2CC3CCC(C2)N3Cc2ccc(Cl)s2)cc1 [Cpd 77]	–	356 nM
CCNC(=O)c1ccc(C=C2CC3CCC(C2)N3Cc2sc3ccccc3c2C)cc1 [Cpd 78]	–	271 nM
CCNC(=O)c1ccc(C(=C2CC3CCC(C2)N3Cc2ccco2)c2cccc(C(=O)O)c2)cc1 [Cpd 80, 3-[(4-Ethylcarbamoyl-phenyl)-(8-furan-2-ylmethyl-8-aza-bicyclo[3.2.1]oct-3-ylidene)-methyl]-benzoic acid]	119 nM	–

SMILES	Ki (MOR binding Ki)	Ki [1]
CCNC(=O)c1ccc(C(=C2CC3CCC(C2)N3Cc2ccccn2)c2cccc(C(=O)O)c2)cc1 [Cpd 82]	375 nM	–
CCNC(=O)c1ccc(C(=C2CC3CCC(C2)N3CCc2ccccc2)c2cccc(C(=O)O)c2)cc1 [Cpd 83]	17.2 nM	–
CCNC(=O)c1ccc(C(=C2CC3CCC(C2)N3Cc2ccc(NC(C)=O)cc2)c2cccc(C(=O)O)c2)cc1 [Cpd 84]	5660 nM	–
CCNC(=O)c1ccc(C(=C2CC3CCC(C2)N3Cc2ccc3ccccc3n2)c2cccc(C(=O)O)c2)cc1 [Cpd 85]	537 nM	–
CCNC(=O)c1ccc(C=C2CC3CCC(C2)N3CCc2ccccc2O)cc1 [Cpd 86]	–	19.3 nM
CCNC(=O)c1ccc(C(=C2CC3CCC(C2)N3Cc2ccc(C(=O)O)o2)c2cccc(C(=O)O)c2)cc1 [Cpd 87]	–	815 nM
CCN(CC)C(=O)c1ccc(C(Br)=C2CC3CCC(C2)N3CCc2ccccc2)cc1 [Cpd 89, 4-[Bromo-(8-phenethyl-8-azabicyclo[3.2.1]oct-3-ylidene)-methyl]-N,N-diethylbenzamide]	1010 nM	–
CCNC(=O)c1ccc(C(=C2CC3CCC(C2)N3Cc2nnn[nH]2)c2ccccc2)cc1 [Cpd 90, N-Ethyl-4-{phenyl-[8-(1H-tetrazol-5-ylmethyl)-8-aza-bicyclo[3.2.1]oct-3-ylidene]-methyl}-benzamide]	406 nM	–
CCNC(=O)c1ccc(C(=C2CC3CCC(C2)N3CCN2CCN(C(=O)OC)CC2)c2ccccc2)cc1 [Cpd 91, 4-(2-{3-[(4-Ethylcarbamoylphenyl)-phenylmethylene]-8-azabicyclo[3.2.1]oct-8-yl}-ethyl)piperazine-1-carboxylic acid methyl ester]	175 nM	–
CCNC(=O)c1ccc(C(=C2CC3CCC(C2)N3Cc2cccc(C(=O)O)c2)c2ccccc2)cc1 [Cpd 93]	280 nM	–
CCNC(=O)c1ccc(C(=C2CC3CCC(C2)N3Cc2ccc(C(=O)O)cc2)c2ccccc2)cc1 [Cpd 94]	322 nM	–
CCNC(=O)c1ccc(C(=C2CC3CCC(C2)N3Cc2ccc(C(=O)O)o2)c2ccccc2)cc1 [Cpd 95]	–	421 nM
CCNC(=O)c1ccc(C(=C2CC3CCC(C2)N3Cc2ccco2)c2ccc(C(=O)O)cc2)cc1 [Cpd 96]	–	63.5 nM
CCNC(=O)c1ccc(C(=C2CC3CCC(C2)N3Cc2ccoc2)c2ccc(C(=O)O)cc2)cc1 [Cpd 97]	11.9 nM	–
CCNC(=O)c1ccc(C(=C2CC3CCC(C2)N3Cc2ccccn2)c2ccc(C(=O)O)cc2)cc1 [Cpd 98]	203 nM	–
CCNC(=O)c1ccc(C(=C2CC3CCC(C2)N3CCc2ccccc2)c2ccc(C(=O)O)cc2)cc1 [Cpd 99]	5290 nM	–
CCNC(=O)c1ccc(C(=C2CC3CCC(C2)N3Cc2ccc3ccccc3n2)c2ccc(C(=O)O)cc2)cc1 [Cpd 100]	147 nM	–
CCNC(=O)c1ccc(C(=C2CC3CCC(C2)N3Cc2ccc3ccccc3n2)c2cncnc2)cc1 [Cpd 101]	113 nM	–
CCNC(=O)c1ccc(C(=C2CC3CCC(C2)N3Cc2nccs2)c2cccc(C(=O)O)c2)cc1 [Cpd 102]	1320 nM	–
CNC(=O)c1ccc(C=C2CC3CCC(C2)N3CC2CC2)cc1 [Cpd 105]	5620 nM	–
CCNC(=O)c1ccc(C=C2CC3CCC(C2)N3CCC(C#N)(c2ccccc2)c2ccccc2)cc1 [Cpd 106, 4-[8-(3-Cyano-3,3-diphenylpropyl)-8-aza-bicyclo[3.2.1]oct-3-ylidenemethyl]-N-ethyl-benzamide]	53.6 nM	–
CCNC(=O)c1ccc(C(=C2CC3CCC(C2)N3Cc2ccco2)c2cc(N)cc(C(=O)O)c2)cc1 [Cpd 108]	10000 nM	–

SMILES	Ki (MOR binding Ki)	Ki [1]
CCNC(=O)c1ccc(C(=C2CC3CCC(C2)N3Cc2ccoc2)c2cc(N)cc(C(=O)O)c2)cc1 [Cpd 110]	9140 nM	–
CCNC(=O)c1ccc(C(=C2CC3CCC(C2)N3Cc2ccccn2)c2cc(N)cc(C(=O)O)c2)cc1 [Cpd 112]	10000 nM	–
CCNC(=O)c1ccc(/C(=C2\C[C@H]3CC[C@@H](C2)N3Cc2ccccn2)c2ccc(C(=O)N(C)C)cc2)cc1 [Cpd 113, N-Ethyl-4-[N′,N′-dimethylbenzamide-(8-pyridin-2-ylmethyl-8-aza-bicyclo[3.2.1]oct-3-ylidene)-methyl]-benzamide]	36.6 nM	–
CCNC(=O)c1ccc(C(=C2CC3CCC(C2)N3CC=C(C)C)c2cc(N)cc(C(=O)O)c2)cc1 [Cpd 114]	4830 nM	–
CCNC(=O)c1ccc(C(=C2CC3CCC(C2)N3CCc2ccccc2)c2cc(N)cc(C(=O)O)c2)cc1 [Cpd 116]	1510 nM	–
CCNC(=O)c1ccc(C(=C2CC3CCC(C2)N3Cc2nccs2)c2cc(N)cc(C(=O)O)c2)cc1 [Cpd 118]	10000 nM	–
CCNC(=O)c1ccc(C(=C2CC3CCC(C2)N3Cc2cccs2)c2cc(N)cc(C(=O)O)c2)cc1 [Cpd 120]	5360 nM	–
CCNC(=O)c1ccc(C(=C2CC3CCC(C2)N3Cc2ccco2)c2ccc([N+](=O)[O-])cc2)cc1 [Cpd 123]	–	34.2 nM
CCNC(=O)c1ccc(C(=C2CC3CCC(C2)N3Cc2ccco2)c2ccc(CC(N)C(=O)O)cc2)cc1 (stereo not shown) [Cpd 124]	94.6 nM	–
CCNC(=O)c1ccc(C(=C2CC3CCC(C2)N3Cc2ccco2)c2ccc(CCC(=O)O)cc2)cc1 [Cpd 125]	47.6 nM	–
CCNC(=O)c1ccc(C(=C2CC3CCC(C2)N3Cc2ccoc2)c2ccc([N+](=O)[O-])cc2)cc1 [Cpd 126]	–	1.45 nM
CCNC(=O)c1ccc(C(=C2CC3CCC(C2)N3Cc2ccoc2)c2ccc(CCC(=O)O)cc2)cc1 [Cpd 127]	2.96 nM	–
CCNC(=O)c1ccc(C(=C2CC3CCC(C2)N3Cc2ccsc2)c2ccc([N+](=O)[O-])cc2)cc1 [Cpd 128]	4.27 nM	–
CCNC(=O)c1ccc(C(=C2CC3CCC(C2)N3Cc2ccsc2)c2ccc(CCC(=O)O)cc2)cc1 [Cpd 129]	6.73 nM	–
CCNC(=O)c1ccc(C(=C2CC3CCC(C2)N3Cc2nccs2)c2ccc([N+](=O)[O-])cc2)cc1 [Cpd 130]	221 nM	–
CCNC(=O)c1ccc(C(=C2CC3CCC(C2)N3Cc2nccs2)c2ccc(CC(N)C(=O)O)cc2)cc1 (stereo not shown) [Cpd 131]	152 nM	–
CCNC(=O)c1ccc(C(=C2CC3CCC(C2)N3Cc2nccs2)c2ccc(CCC(=O)O)cc2)cc1 [Cpd 132]	164 nM	–
CCNC(=O)c1ccc(C=C2CC3CCC(C2)N3Cc2nccs2)cc1 [Cpd 133]	581 nM	–
CCNC(=O)c1ccc(C(=C2CC3CCC(C2)N3CCc2ccccc2)c2ccc([N+](=O)[O-])cc2)cc1 [Cpd 134]	7.57 nM	–
CCNC(=O)c1ccc(C(=C2CC3CCC(C2)N3CCc2ccccc2)c2ccc(CCC(=O)O)cc2)cc1 [Cpd 135]	–	318 nM

Reference: patent publication US20050004163A1, “3-(diarylmethylene)-8-azabicyclo[3.2.1]octane derivatives” (priority 2000, published 2005)
